This is an account of results in ChEMBL document CHEMBL2321734, “Novel antiviral activity of l-dideoxy bicyclic nucleoside analogues versus vaccinia and measles viruses in vitro” (J Med Chem, 2013).

One series has as its system BSC-1. Nature of the series: Cytotoxicity against african green monkey BSC1 cells infected with Vaccinia virus-WR luciferase reporter virus v3 assessed as visible cytotoxic effect at 10 uM incubated for 30 mins prior to inoculation measured after 2 hrs by phase contrast microscopic analysis. Type of series: cell-based. The following applies: chlorocebus aethiops, bsc-1, 2 h.
On to `COCCCCCCCCCCCCCc1cc2cn([C@@H]3CC[C@H](CO)O3)c(=O)nc2o1`, for which the Activity result is reported as “Non-toxic”.

Regarding `CCCCCCCCCCc1cc2cn([C@@H]3CC[C@H](CO)O3)c(=O)nc2o1`, the Activity result is on record as “Non-toxic”.

`CC(C)OCCCCCCCCCc1cc2cn([C@@H]3CC[C@H](CO)O3)c(=O)nc2o1`: the Activity result was “Non-toxic”.

Turning to `CCCCCCCCc1cc2cn([C@@H]3CC[C@H](CO)O3)c(=O)nc2o1`, the Activity entry was “Non-toxic”.

Turning to `CCCCCCCc1cc2cn([C@@H]3CC[C@H](CO)O3)c(=O)nc2o1`, the Activity entry was “Non-toxic”.

With `CCCCCc1ccc(-c2cc3cn([C@@H]4CC[C@H](CO)O4)c(=O)nc3o2)cc1`, the Activity result is given as “Non-toxic”.

For the compound `CCCCc1ccc(-c2cc3cn([C@@H]4CC[C@H](CO)O4)c(=O)nc3o2)cc1`, the Activity result is on record as “Non-toxic”.

In the case of `CCC(C)OCCCCCCCCCc1cc2cn([C@@H]3CC[C@H](CO)O3)c(=O)nc2o1` (some centres not stated), the Activity result is listed as “Non-toxic”.

For the compound `CCCCCCCCCc1cc2cn([C@@H]3CC[C@H](CO)O3)c(=O)nc2o1`, the Activity entry is listed as “Non-toxic”.

As for `CC(C)COCCCCCCCCCc1cc2cn([C@@H]3CC[C@H](CO)O3)c(=O)nc2o1`, the Activity entry is “Non-toxic”.

Another series has as its system Measles morbillivirus. Nature of the series: Antiviral activity against wild type Measles virus mWTFb infected in simian B95a cells assessed as virus-induced cytopathogenicity incubated for 30 mins prior to inoculation measured after 3 days by phase contrast microscopy. In kind it is functional, organism-based.
Details: not given
For `COC[C@H]1OC(=O)c2coc3c2[C@@]1(C)C1=C(C3=O)[C@@H]2CCC(=O)[C@@]2(C)C[C@H]1OC(C)=O` [WORTMANNIN], the IC50 was determined as 75 µM.

With `NC(=O)c1ncn([C@@H]2O[C@H](CO)[C@@H](O)[C@H]2O)n1` [RIBAVIRIN], the IC50 is 1160 µM.

Another series relates to Vaccinia virus. Put plainly: Antiviral activity against Vaccinia virus WR expressing luciferase reporter virus v3 infected in rabbit RK13 cells assessed as inhibition of early stages of VACV replication at 10 uM incubated for 30 mins prior to inoculation measured after 2 hrs by luciferase reporter gene assay relative to control. Type of series: functional. The conditions noted are these: Orthopoxvirus vaccinia, RK-13.
As for `COCCCCCCCCCCCCCc1cc2cn([C@@H]3CC[C@H](CO)O3)c(=O)nc2o1`, the inhibition at 10 µM amounted to 60.5%.

On to `CCCCCCCCCCc1cc2cn([C@@H]3CC[C@H](CO)O3)c(=O)nc2o1`, for which the inhibition at 10 µM amounted to 45.7%.

`CC(C)OCCCCCCCCCc1cc2cn([C@@H]3CC[C@H](CO)O3)c(=O)nc2o1`: the inhibition at 10 µM is 79.9%.

With `CCCCCCCCc1cc2cn([C@@H]3CC[C@H](CO)O3)c(=O)nc2o1`, the inhibition at 10 µM turned out to be 41.9%.

With `CCCCCCCc1cc2cn([C@@H]3CC[C@H](CO)O3)c(=O)nc2o1`, the inhibition at 10 µM came out at 43.2%.

As to `CCCCCc1ccc(-c2cc3cn([C@@H]4CC[C@H](CO)O4)c(=O)nc3o2)cc1`, the inhibition at 10 µM came to 73.6%.

For the compound `CCCCc1ccc(-c2cc3cn([C@@H]4CC[C@H](CO)O4)c(=O)nc3o2)cc1`, the inhibition at 10 µM stood at 43.7%.

As to `CCC(C)OCCCCCCCCCc1cc2cn([C@@H]3CC[C@H](CO)O3)c(=O)nc2o1` (some centres not stated), the inhibition at 10 µM worked out at 69.9%.

For `CCCCCCCCCc1cc2cn([C@@H]3CC[C@H](CO)O3)c(=O)nc2o1`, the inhibition at 10 µM is 38.1%.

As to `CC(C)COCCCCCCCCCc1cc2cn([C@@H]3CC[C@H](CO)O3)c(=O)nc2o1`, the inhibition at 10 µM stood at 64.3%.
